Patent US20250236616A1, “IMMUNOMODULATING AZALIDES” (Zoetis Services LLC, priority 2021, published 2025)
pIC50: −log10 of the molar value.

Legend:
Format in all cases: cell-based
TNF-α = assay: Whole bovine blood assay, LPS-induced TNF-α; conditions: fresh whole bovine blood, LPS stimulant; top drug concentration 250 μM
Summary of the method: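 Fresh heparinized bovine whole blood was preincubated with compound 4 h at 37 °C, then stimulated with LPS (final 1 μg/mL) for 18 h at 37 °C. Plasma TNF-α was quantified by MSD U-Plex chemiluminescent immunoassay, normalized to total protein (BCA), and IC50 taken for LPS-induced TNF-α inhibition.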

IL-6 = assay: Whole bovine blood assay, LPS-induced IL-6; conditions: fresh whole bovine blood, LPS stimulant; top drug concentration 250 μM
IL-1β = assay: Whole bovine blood assay, LPS-induced IL-1β (inhibition / overstimulation); conditions: drug concentration giving overstimulation (OS) of LPS-induced IL-1β, top concentration 250 μM
Procedure: Whole Blood Assay-Fresh whole bovine blood samples were collected into heparinized vacutainer tubes. Assay plates were prepared with 25 μL of drug diluted in PBS at varying concentration in 96 round bottom wells, then 225 μL of blood was added and plates incubated at 37° C. for 4 hours. Cells were stimulated with LPS (or PBS for controls) by adding 25 μL to the plates at a final concentration of 1 μg/mL and incubated at 37° C. for 18 hours. To collect plasma, plates were centrifuged at 2,000×g for 10 minutes and 100 μL of supernatant was transferred to a 96 well polypropylene plate that was sealed and stored at −80° C. Samples were assayed for cytokines using the Meso Scale Discovery (MSD) platform (described below). This same MSD platform was used to assess cytokines in the plasma collected directly from drug treated animals.
Cytokine Detection—An MSD U-Plex cytokine assay was developed following the MSD U-Plex protocol guide and included biotinylated capture antibodies against: bovine Interleukin (IL)-1β (Biorad), bovine IL-6 (R&D Systems) and bovine tumor necrosis factor (TNF)-α (R&D Systems). The anti-IL-1β antibody was biotinylated using EZ-Link Sulfo-NHS-Biotin (Thermo Scientific) at a challenge ratio of 1:20 according to manufacturer instructions. Assay calibrators (Kingfisher) were diluted to a concentration of […] in control lithium heparin plasma, followed by 4-fold serial dilutions into plasma. The detection antibodies were sulfo-tagged following the MSD quick guide conjugation protocol using a challenge ratio of 1:20. Antibodies were used at the following concentrations: anti-IL-1β at 1 μg/mL, anti-IL-6 at 1 μg/mL and anti-TNF-α at 0.5 μg/mL. Cytokines were quantified according to manufacturer's instructions using a chemiluminescent readout. In brief, 0.5 mL of all biotinylated antibodies were diluted to 10 μg/mL with Diluent 100 and paired to their respective linkers by adding 750 μL of supplied Linker solution and incubated for 30 minutes followed by addition of Stop solution for another 30 minutes. The linked antibodies were then diluted 10-fold into Stop solution. Plates were coated by adding 50 μL of antibody solutions per well and incubated covered and shaking for 1 hour at room temperature. Plates were washed three times with PBS/Tween20 prior to samples or standards being added at 30 μL per well and incubated as above. Plates were washed three times before detection antibodies were added along with 2% goat and rabbit serum to block and incubated same as above. Plates were washed a further three times before addition of 150 μL 2X Read buffer and read immediately on the SI6000 instrument (MSD). For soluble protein levels, a BCA protein kit (Thermofisher) was used. The cytokine concentrations (pg/mL) were normalized to the total protein levels for each sample. [Bassel et. al., BMC Veterinary Research (2020) 16:168]
Therefore, a fresh whole bovine blood assay was developed with LPS as a stimulant (TLR-4 agonist) and with IL-1β and TNF-α as the read-out. Compounds of the invention were evaluated against a positive control for their ability to inhibit LPS-induced IL-1β and TNF-α as an overall evaluation of relative potency and modulation of target pathways.
For M9, the top dose of 500 μM was not high enough to determine an overstimulation of IL-1 B which was recorded as not applicable (n/a). The enhanced response indicates increased concentration of IL-1β cytokine at the drug concentration indicated. This is generally observed when compounds are out of range (high concentration) and stimulate a cellular toxicity signal. Further data supporting this hypothesis includes murine studies using a P. multocida infection in mice.
TNFα is a cell signaling protein, cytokine, that plays a key role in both acute and chronic inflammation. […]

SMILES | pIC50 (TNF-α) | pIC50 (IL-6) | minimal effective concentration (IL-1β) [µM]
CCCNC[C@]1(O)[C@H](C)O[C@@H](O[C@H]2[C@H](C)[C@@H](O[C@@H]3O[C@H](C)C[C@H](N(C)S(=O)(=O)c4ccccc4)[C@H]3Oc3cccc([S+](C)[O-])c3)[C@](C)(O)C[C@@H](C)CN[C@H](C)[C@@H](O)[C@](C)(O)[C@@H](CC)OC(=O)[C@@H]2C)C[C@@]1(C)OC (some centres unmarked) [Example B-138] | 4.59 | 4.15 | 40
CCCNC[C@]1(O)[C@H](C)O[C@@H](O[C@H]2[C@H](C)[C@@H](O[C@@H]3O[C@H](C)C[C@H](N(C)S(=O)(=O)N(C)c4ccccc4)[C@H]3O)[C@](C)(O)C[C@@H](C)CN[C@H](C)[C@@H](O)[C@](C)(O)[C@@H](CC)OC(=O)[C@@H]2C)C[C@@]1(C)OC [Example B-57] | 5.30 | 5.10 | 16
CCCNC[C@]1(O)[C@H](C)O[C@@H](O[C@H]2[C@H](C)[C@@H](O[C@@H]3O[C@H](C)C[C@H](N(C)S(=O)(=O)N(C)Cc4ccccc4)[C@H]3O)[C@](C)(O)C[C@@H](C)CN[C@H](C)[C@@H](O)[C@](C)(O)[C@@H](CC)OC(=O)[C@@H]2C)C[C@@]1(C)OC [Example B-44] | 4.89 | 5.05 | 3
CC[C@H]1OC(=O)[C@H](C)[C@@H](O[C@H]2C[C@@](C)(OC)[C@](O)(CNc3ccc(OC)cc3)[C@H](C)O2)[C@H](C)[C@@H](O[C@@H]2O[C@H](C)C[C@H](N(C)S(N)(=O)=O)[C@H]2O)[C@](C)(O)C[C@@H](C)CN[C@H](C)[C@@H](O)[C@]1(C)O [Example B-125] | 4.47 | 4.06 | 16
CCCNC[C@]1(O)[C@H](C)O[C@@H](O[C@H]2[C@H](C)[C@@H](O[C@@H]3O[C@H](C)C[C@H](N(C)S(=O)(=O)c4ccc(Cl)cc4)[C@H]3Oc3ccc(F)cc3)[C@](C)(O)C[C@@H](C)CN[C@H](C)[C@@H](O)[C@](C)(O)[C@@H](CC)OC(=O)[C@@H]2C)C[C@@]1(C)OC [Example B-106] | 5.15 | 5.05 | 3
CCCNC[C@]1(O)[C@H](C)O[C@@H](O[C@H]2[C@H](C)[C@@H](O[C@@H]3O[C@H](C)C[C@H](N(C)S(=O)(=O)c4cccnc4Cl)[C@H]3Oc3ccc(OC)cc3)[C@](C)(O)C[C@@H](C)CN[C@H](C)[C@@H](O)[C@](C)(O)[C@@H](CC)OC(=O)[C@@H]2C)C[C@@]1(C)OC [Example B-124] | – | 5.40 | 6
CC[C@H]1OC(=O)[C@H](C)[C@@H](O[C@H]2C[C@@](C)(OC)[C@](O)(CNCCc3ccncc3)[C@H](C)O2)[C@H](C)[C@@H](O[C@@H]2O[C@H](C)C[C@H](N(C)S(=O)(=O)c3ccc(Cl)cc3)[C@H]2O)[C@](C)(O)C[C@@H](C)CN[C@H](C)[C@@H](O)[C@]1(C)O [Example B-29] | – | 4.27 | 12

Further lines, with some results ahead:

pIC50 (TNF-α) | pIC50 (IL-6) | SMILES | minimal effective concentration (IL-1β) [µM]
5.40 | 5.22 | CC[C@H]1OC(=O)[C@H](C)[C@@H](O[C@H]2C[C@@](C)(OC)[C@](O)(CN3CCCCC3)[C@H](C)O2)[C@H](C)[C@@H](O[C@@H]2O[C@H](C)C[C@H](N(C)S(=O)(=O)c3ccccc3)[C@H]2Oc2ccc(Cl)cn2)[C@](C)(O)C[C@@H](C)CN[C@H](C)[C@@H](O)[C@]1(C)O [Example C-48] | 6
– | 4.51 | CC[C@H]1OC(=O)[C@H](C)[C@@H](O[C@H]2C[C@@](C)(OC)[C@](O)(Cn3ccnc3)[C@H](C)O2)[C@H](C)[C@@H](O[C@@H]2O[C@H](C)C[C@H](N(C)S(=O)(=O)c3ccc(Cl)cc3)[C@H]2O)[C@](C)(O)C[C@@H](C)CN[C@H](C)[C@@H](O)[C@]1(C)O [Example C-5] | 16
– | 5.40 | CCCN([C@H]1C[C@@H](C)O[C@@H](O[C@@H]2[C@@H](C)[C@H](O[C@H]3C[C@@](C)(OC)[C@](O)(CN4CCCCC4)[C@H](C)O3)[C@@H](C)C(=O)O[C@H](CC)[C@@](C)(O)[C@H](O)[C@@H](C)NC[C@H](C)C[C@@]2(C)O)[C@@H]1O)S(=O)(=O)c1ccc(OC)cc1 [Example C-41] | >250
